Measured values taken from the NIST ThermoML archive (doi:10.1021/je700672f).

Legend:
[1] = xn = mol fraction of the nth substance listed; settings: 101 kPa, Liquid, x2 = 0
[2] = 101 kPa, Liquid

O [water] + OCCOCCO
[1]
Settings | mass density [kg/m3] | viscosity [mPa·s]
283.15 K | 999.7 | –
293.15 K | – | 1.013
303.15 K | 995.55 | 0.811
313.15 K | – | 0.667
323.15 K | 988.03 | 0.561
328.15 K | 985.69 | –
333.15 K | 983.19 | 0.477
338.15 K | 980.55 | –
343.15 K | 977.76 | 0.413
348.15 K | 974.84 | –
353.15 K | 971.79 | 0.362

OCCOCCO [diethylene glycol]
[2]
Settings | mass density [kg/m3] | viscosity [mPa·s]
283.15 K | 1124.24 | –
288.15 K | 1120.65 | –
293.15 K | 1117.05 | 36.43
298.15 K | 1113.47 | –
303.15 K | 1109.88 | 22.09
308.15 K | 1106.29 | –
313.15 K | 1102.7 | 14.56
318.15 K | 1099.11 | –
323.15 K | 1095.51 | 10.03
328.15 K | 1091.91 | –
333.15 K | 1088.3 | 7.22
338.15 K | 1084.68 | –
343.15 K | 1081.05 | 5.369
348.15 K | 1077.4 | –
353.15 K | 1073.74 | 4.139
